Assay results as given in the Kinase Knowledgebase extract (Sharma et al. 2016).

Target: EGFR (murine) (UniProt P00533)
Assay: not given
Conditions: nih3t3/c7

Chain of EGFR (murine) (P00533 whole entry, looked up): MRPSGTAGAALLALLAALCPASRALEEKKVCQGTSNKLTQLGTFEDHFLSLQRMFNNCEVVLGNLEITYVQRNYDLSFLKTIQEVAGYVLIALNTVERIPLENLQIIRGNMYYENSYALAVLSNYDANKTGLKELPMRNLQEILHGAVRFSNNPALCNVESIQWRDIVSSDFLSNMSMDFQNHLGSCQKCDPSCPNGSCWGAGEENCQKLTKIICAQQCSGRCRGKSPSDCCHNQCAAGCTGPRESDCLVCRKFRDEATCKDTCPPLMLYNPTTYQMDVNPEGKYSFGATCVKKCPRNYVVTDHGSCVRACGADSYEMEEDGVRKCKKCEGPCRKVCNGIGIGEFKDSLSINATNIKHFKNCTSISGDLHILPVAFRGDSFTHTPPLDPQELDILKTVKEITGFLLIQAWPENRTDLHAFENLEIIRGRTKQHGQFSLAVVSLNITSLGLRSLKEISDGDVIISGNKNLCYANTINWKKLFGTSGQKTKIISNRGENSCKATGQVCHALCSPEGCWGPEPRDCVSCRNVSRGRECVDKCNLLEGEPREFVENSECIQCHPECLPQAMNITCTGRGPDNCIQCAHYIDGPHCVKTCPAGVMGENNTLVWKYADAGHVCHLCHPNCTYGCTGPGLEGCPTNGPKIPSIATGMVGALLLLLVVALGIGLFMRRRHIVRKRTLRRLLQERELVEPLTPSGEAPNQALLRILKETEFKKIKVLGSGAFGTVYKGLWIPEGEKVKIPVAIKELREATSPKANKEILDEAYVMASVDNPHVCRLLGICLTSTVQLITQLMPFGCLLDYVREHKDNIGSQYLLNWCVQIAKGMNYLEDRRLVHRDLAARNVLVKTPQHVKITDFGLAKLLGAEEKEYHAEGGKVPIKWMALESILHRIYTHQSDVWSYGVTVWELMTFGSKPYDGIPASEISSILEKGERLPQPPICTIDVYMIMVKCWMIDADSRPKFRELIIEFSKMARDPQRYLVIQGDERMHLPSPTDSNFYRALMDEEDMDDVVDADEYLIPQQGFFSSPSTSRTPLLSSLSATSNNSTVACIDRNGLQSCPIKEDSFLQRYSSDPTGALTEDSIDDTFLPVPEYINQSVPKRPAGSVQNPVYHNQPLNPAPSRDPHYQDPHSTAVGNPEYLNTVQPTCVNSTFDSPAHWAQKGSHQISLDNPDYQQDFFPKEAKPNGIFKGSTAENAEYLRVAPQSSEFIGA

IC50	Compound
> 100 µM	Cc1cc(C(=O)O)[nH]c1/C=C1\C(=O)Nc2ccc(Cl)cc21
> 100 µM	Cc1[nH]c(/C=C2\C(=O)Nc3ccc(Br)cc32)c(C)c1C(=O)NCCN1CCCC1
> 100 µM	Cc1[nH]c(/C=C2\C(=O)Nc3cc(-c4ccccc4)ccc32)c(C)c1C(=O)NCCCn1ccnc1
> 100 µM	CCN(CC)CCNC(=O)c1c(C)[nH]c(/C=C2\C(=O)Nc3cc(-c4cccnc4)ccc32)c1C
> 100 µM	CCOC(=O)c1c(C)[nH]c(/C=C2\C(=O)Nc3ccc(Br)cc32)c1-c1ccccc1
> 100 µM	Cc1cc(C(=O)O)[nH]c1/C=C1\C(=O)Nc2ccccc21
> 100 µM	Cc1[nH]c(/C=C2\C(=O)Nc3cc(-c4ccccc4)ccc32)c(C)c1C(=O)NCCN1CCCC1
> 100 µM	Cc1[nH]c(/C=C2\C(=O)Nc3ccc(Br)cc32)c(C)c1C(=O)NCCCn1ccnc1
> 100 µM	CCOC(=O)c1cc(C)c(/C=C2\C(=O)Nc3ccc(Cl)cc32)[nH]1
> 100 µM	Cc1[nH]c(/C=C2\C(=O)Nc3ccc(-c4ccccc4)cc32)c(C)c1C(=O)NCCCn1ccnc1
> 100 µM	Cc1[nH]c(/C=C2\C(=O)Nc3cc(-c4cccnc4)ccc32)c(C)c1C(=O)NCCN1CCCC1
> 100 µM	COC(=O)c1cc(C)c(/C=C2\C(=O)Nc3ccccc32)[nH]1
> 100 µM	CCN(CC)CCNC(=O)c1c(C)[nH]c(/C=C2\C(=O)Nc3cc(-c4cc(Cl)cc(Cl)c4)ccc32)c1C
> 100 µM	CCN(CC)CCN(C)C(=O)c1ccc(/C=C2\C(=O)Nc3cc(-c4ccccc4)ccc32)[nH]1
> 100 µM	Cc1cc(C(=O)O)[nH]c1/C=C1\C(=O)N(C)c2ccccc21
> 100 µM	CCN(CC)CCNC(=O)c1c(C)[nH]c(/C=C2\C(=O)Nc3cc(-c4ccccc4)ccc32)c1C
> 100 µM	CCN(CC)CCNC(=O)c1ccc(/C=C2\C(=O)Nc3cc(-c4ccccc4)ccc32)[nH]1

Target: EGFR (human) (UniProt P00533)
Assay: not given
Conditions: not given

Chain of EGFR (human) (P00533 whole entry, looked up): as above

IC50	Compound
> 100 µM	CCN(CC)CCNC(=O)c1c(C)[nH]c(/C=C2\C(=O)Nc3ccc(S(=O)(=O)N(C)C)cc32)c1C
> 100 µM	Cc1[nH]c(/C=C2\C(=O)Nc3ccc(S(=O)(=O)N(C)C)cc32)c(C)c1C(=O)NCCN1CCCC1
> 100 µM	CCN(CC)CCNC(=O)c1c(C(C)C)[nH]c(/C=C2\C(=O)Nc3ccc(Br)cc32)c1C(C)C
> 100 µM	Cc1[nH]c(/C=C2\C(=O)Nc3cc(-c4ccccc4)ccc32)c(C)c1C(=O)NCCN(C)C
> 100 µM	Cc1[nH]c(/C=C2\C(=O)Nc3ccc(-c4ccccc4)cc32)c(C)c1C(=O)NCCCn1ccnc1
> 100 µM	COc1ccccc1-c1ccc2c(c1)NC(=O)/C2=C\c1[nH]c(C)c(C(=O)NCCN(C)C)c1-c1ccccc1
> 100 µM	CCN(CC)CCCNC(=O)c1c(C)[nH]c(/C=C2\C(=O)Nc3cc(-c4ccccc4)ccc32)c1C
> 100 µM	CCOC(=O)CNC(=O)c1c[nH]c(/C=C2\C(=O)Nc3ccc(S(=O)(=O)NC)cc32)c1C
> 100 µM	Cc1c(C(=O)NCCCN2CCOCC2)[nH]c(/C=C2\C(=O)Nc3ccc(Br)cc32)c1C(=O)c1ccccc1
> 100 µM	CCN(CC)CCCNC(=O)c1[nH]c(/C=C2\C(=O)Nc3ccc(OC)cc32)cc1C
> 100 µM	Cc1[nH]c(/C=C2\C(=O)Nc3ccc(Cl)cc32)c(C)c1C(=O)NCCN(C)C
> 100 µM	CCN(CC)CCNC(=O)c1c(C)[nH]c(/C=C2\C(=O)Nc3cc(-c4cc(Cl)cc(Cl)c4)ccc32)c1C
> 100 µM	CCN(CC)CCCNC(=O)c1c(C)[nH]c(/C=C2\C(=O)Nc3cccc(C(=O)Nc4ccc(OC)c(Cl)c4)c32)c1C
> 100 µM	COc1ccccc1-c1ccc2c(c1)NC(=O)/C2=C\c1[nH]c(C)c(C(=O)NCCN2CCCC2)c1-c1ccccc1
> 100 µM	CNS(=O)(=O)c1ccc2c(c1)/C(=C/c1[nH]cc(C(=O)O)c1C)C(=O)N2
> 100 µM	CCOC(=O)CNC(=O)c1c[nH]c(/C=C2\C(=O)Nc3ccc(S(=O)(=O)NC)c(C)c32)c1C
> 100 µM	CNS(=O)(=O)c1ccc2c(c1)/C(=C/c1[nH]cc(C(=O)NCC(=O)O)c1C)C(=O)N2
> 100 µM	CCN(CC)CCCNC(=O)c1[nH]c(/C=C2\C(=O)Nc3cc(OC)ccc32)cc1C

Target: CDK2 (human) (UniProt P24941)
Assay: Enzyme Assay
Conditions: not given

IC50	Compound
> 20 µM	CCN(CC)CCCNC(=O)c1c(C)[nH]c(/C=C2\C(=O)Nc3ccc(Br)cc32)c1-c1ccccc1
